Measurements as given in US9051310B2, “Nicotinamide derivative or salt thereof” (FUJIFILM Corporation, priority 2011, dated 2015).
pIC50: −log10 of the molar value.

Biological target: T1, glutathione S-transferase (GST)-linked full-length human Syk protein (Homo sapiens, UniProt P43405)
T1 construct: glutathione S-transferase (GST)-linked full-length human Syk protein; purchased Carna Biosciences; host or cells: Baculovirus expression system
Experiment: Syk enzyme assay
Type: biochemical
Details: 0.83 nM Syk, time-resolved fluorescence; read-out: IC50 of Syk-inhibitory activity
Method in brief: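 Phosphotyrosine on a biotin-peptide substrate (0.5 μM) was read by time-resolved fluorescence at 615 and 665 nm with Eu-anti-pTyr antibody and APC-streptavidin after 1 h EDTA stop.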

With `CCOC[C@@H](Nc1nc(Nc2cccc3c2cnn3CCOC)c(C(N)=O)cc1F)[C@H](C)N` [Example 2-310, 6-(((2S,3S)-3-amino-1-ethoxybutan-2-yl)amino)-5-fluoro-2-((1-(2-methoxyethyl)-1H-indazol-4-yl)amino)nicotinamide] as the molecule, how does the pIC50 read?
The pIC50 was 7.00 to 7.30.

With `C[C@H](N)[C@H](Nc1nc(Nc2cnc(N3CCOCC3)c(F)c2)c(C(N)=O)cc1F)c1ccccc1` [Example 2-314, 6-(((1R,2S)-2-amino-1-phenylpropyl)amino)-5-fluoro-2-((5-fluoro-6-morpholinopyridin-3-yl)amino)nicotinamide] as the molecule, how does the pIC50 read?
Its pIC50 is > 8.00.

`C[C@H](N)[C@H](Nc1nc(Nc2ccc3c(c2)c(N(C)C)nn3C)c(C(N)=O)cc1F)c1ccccc1` [Example 2-315, 6-(((1R,2S)-2-amino-1-phenylpropyl)amino)-2-((3-(dimethylamino)-1-methyl-1H-indazol-5-yl)amino)-5-fluoronicotinamide] was tested. Which pIC50 did it give?
Its pIC50 is 7.30 to 8.00.

With `Cc1nn(C)c2ncc(Nc3nc(N[C@@H]4CCOC[C@@H]4N)c(F)cc3C(N)=O)cc12` [Example 2-333, 6-(((3R,4R)-3-aminotetrahydro-2H-pyran-4-yl)amino)-2-((1,3-dimethyl-1H-pyrazolo[3,4-b]pyridin-5-yl)amino)-5-fluoronicotinamide] as the molecule, how does the pIC50 read?
The pIC50 was 7.30 to 8.00.

`CN(C)c1nn(C)c2ncc(Nc3nc(N[C@@H]4CCOC[C@@H]4N)c(F)cc3C(N)=O)cc12` [Example 2-335, 6-(((3R,4R)-3-aminotetrahydro-2H-pyran-4-yl)amino)-2-((3-(dimethylamino)-1-methyl-1H-pyrazolo[3,4-b]pyridin-5-yl)amino)-5-fluoronicotinamide] was tested. Which pIC50 did it give?
The pIC50 was 7.30 to 8.00.

`COc1ncc(Nc2nc(N[C@H](c3ccccc3)[C@H](C)N)c(F)cc2C(N)=O)cc1-n1ccnn1` [Example 2-336, 6-(((1R,2S)-2-amino-1-phenylpropyl)amino)-5-fluoro-2-((6-methoxy-5-(1H-1,2,3-triazol-1-yl)pyridin-3-yl)amino)nicotinamide] was tested. Which pIC50 did it give?
The pIC50 was > 8.00.

With `COc1ccc([C@@H](Nc2nc(Nc3ccc4ncccc4c3)c(C(N)=O)cc2F)[C@H](C)N)cc1` [Example 2-337, 6-(((1R,2S)-2-amino-1-(4-methoxyphenyl)propyl)amino)-5-fluoro-2-(quinolin-6-ylamino)nicotinamide] as the molecule, how does the pIC50 read?
The pIC50 was 7.00 to 7.30.

`COc1ccc([C@@H](Nc2nc(Nc3cnc(OC)c(-n4ccnn4)c3)c(C(N)=O)cc2F)[C@H](C)N)cc1` [Example 2-339, 6-(((1R,2S)-2-amino-1-(4-methoxyphenyl)propyl)amino)-5-fluoro-2-((6-methoxy-5-(1H-1,2,3-triazol-1-yl)pyridin-3-yl)amino)nicotinamide] was tested. Which pIC50 did it give?
The pIC50 was 7.00 to 7.30.

With `CCn1ncc2cc(Nc3nc(N[C@H](c4ccc(OC)cc4)[C@H](C)N)c(F)cc3C(N)=O)ccc21` [Example 2-341, 6-(((1R,2S)-2-amino-1-(4-methoxyphenyl)propyl)amino)-2-((1-ethyl-1H-indazol-5-yl)amino)-5-fluoronicotinamide] as the molecule, how does the pIC50 read?
The pIC50 was > 8.00.

`COc1ccc([C@@H](Nc2nc(Nc3ccc4c(c3)c(N(C)C)nn4C)c(C(N)=O)cc2F)[C@H](C)N)cc1` [Example 2-342, 6-(((1R,2S)-2-amino-1-(4-methoxyphenyl)propyl)amino)-2-((3-(dimethylamino)-1-methyl-1H-indazol-5-yl)amino)-5-fluoronicotinamide] was tested. Which pIC50 did it give?
The pIC50 was 7.30 to 8.00.

With `COc1cc(Nc2nc(N[C@H](CCSC)[C@H](C)N)c(F)cc2C(N)=O)cc(OC)c1` [Example 2-345, 6-(((3R,4S)-4-amino-1-(methylthio)pentan-3-yl)amino)-2-((3,5-dimethoxyphenyl)amino)-5-fluoronicotinamide] as the molecule, how does the pIC50 read?
Its pIC50 is 7.30 to 8.00.

How did the pIC50 turn out when `C[C@H](N)[C@H](Nc1nc(Nc2ccc3c(c2)c(OC(F)F)nn3C)c(C(N)=O)cc1F)C1CCC1` [Example 2-350, 6-(((1R,2S)-2-amino-1-cyclobutylpropyl)amino)-2-((3-(difluoromethoxy)-1-methyl-1H-indazol-5-yl)amino)-5-fluoronicotinamide] was run?
Its pIC50 is > 8.00.

`CC[C@H](N)[C@@H](C)Nc1nc(Nc2ccc3c(c2)c(OC(F)F)nn3C)c(C(N)=O)cc1F` [Example 2-351, 6-(((2R,3S)-3-aminopentan-2-yl)amino)-2-((3-(difluoromethoxy)-1-methyl-1H-indazol-5-yl)amino)-5-fluoronicotinamide] was tested. Which pIC50 did it give?
The pIC50 was > 8.00.

How did the pIC50 turn out when `CCC[C@@H](Nc1nc(Nc2ccc3c(c2)c(OC(F)F)nn3CCOC)c(C(N)=O)cc1F)[C@H](C)N` [Example 2-353, 6-(((2S,3R)-2-aminohexan-3-yl)amino)-2-((3-(difluoromethoxy)-1-(2-methoxyethyl)-1H-indazol-5-yl)amino)-5-fluoronicotinamide] was run?
Its pIC50 is > 8.00.

How did the pIC50 turn out when `Cc1ncc(Nc2nc(N[C@H](c3ccc(C(F)(F)F)cc3)[C@H](C)N)c(F)cc2C(N)=O)cc1-n1nccn1` [Example 2-354, 6-(((1R,2S)-2-amino-1-(4-(trifluoromethyl)phenyl)propyl)amino)-5-fluoro-2-((6-methyl-5-(2H-1,2,3-triazol-2-yl)pyridin-3-yl)amino)nicotinamide] was run?
The pIC50 was 7.30 to 8.00.

`COc1cc(Nc2nc(N[C@H](c3ccc(C(F)(F)F)cc3)[C@H](C)N)c(F)cc2C(N)=O)cc(OC)n1` [Example 2-355, 6-(((1R,2S)-2-amino-1-(4-(trifluoromethyl)phenyl)propyl)amino)-2-((2,6-dimethoxypyridin-4-yl)amino)-5-fluoronicotinamide] was tested. Which pIC50 did it give?
The pIC50 was > 8.00.

How did the pIC50 turn out when `COc1cc(Nc2nc(N[C@H](c3ccccc3)[C@H](C)N)c(F)cc2C(N)=O)cc(OC)n1` [Example 2-356, 6-(((1R,2S)-2-amino-1-phenylpropyl)amino)-2-((2,6-dimethoxypyridin-4-yl)amino)-5-fluoronicotinamide] was run?
Its pIC50 is 7.30 to 8.00.

With `COc1ccc([C@@H](Nc2nc(Nc3cc(OC)nc(OC)c3)c(C(N)=O)cc2F)[C@H](C)N)cc1` [Example 2-357, 6-(((1R,2S)-2-amino-1-(4-methoxyphenyl)propyl)amino)-2-((2,6-dimethoxypyridin-4-yl)amino)-5-fluoronicotinamide] as the molecule, how does the pIC50 read?
Its pIC50 is 7.30 to 8.00.

`CC[C@H](N)[C@H](Nc1nc(Nc2cnc(N3CCOCC3)c(F)c2)c(C(N)=O)cc1F)C1CC1` [Example 2-359, 6-(((1R,2S)-2-amino-1-cyclopropylbutyl)amino)-5-fluoro-2-((5-fluoro-6-morpholinopyridin-3-yl)amino)nicotinamide] was tested. Which pIC50 did it give?
Its pIC50 is 7.00 to 7.30.

With `CC[C@H](N)[C@H](Nc1nc(Nc2ccnc(OCCOC)c2)c(C(N)=O)cc1F)C1CC1` [Example 2-360, 6-(((1R,2S)-2-amino-1-cyclopropylbutyl)amino)-5-fluoro-2-((2-(2-methoxyethoxy)pyridin-4-yl)amino)nicotinamide] as the molecule, how does the pIC50 read?
The pIC50 was 7.30 to 8.00.

How did the pIC50 turn out when `CC[C@H](N)[C@H](Nc1nc(Nc2cc(OC)cc(OC)c2)c(C(N)=O)cc1F)C1CC1` [Example 2-361, 6-(((1R,2S)-2-amino-1-cyclopropylbutyl)amino)-2-((3,5-dimethoxyphenyl)amino)-5-fluoronicotinamide] was run?
Its pIC50 is 7.30 to 8.00.

`CCn1ncc2cc(Nc3nc(N[C@@H](CN)Cc4ccccc4)c(F)cc3C(N)=O)ccc21` [Example 2-363, (R)-6-((1-amino-3-phenylpropan-2-yl)amino)-2-((1-ethyl-1H-indazol-5-yl)amino)-5-fluoronicotinamide] was tested. Which pIC50 did it give?
Its pIC50 is 7.30 to 8.00.

How did the pIC50 turn out when `Cc1ncc(Nc2nc(N[C@@H](CN)Cc3ccccc3)c(F)cc2C(N)=O)cc1-n1nccn1` [Example 2-364, (R)-6-((1-amino-3-phenylpropan-2-yl)amino)-5-fluoro-2-((6-methyl-5-(2H-1,2,3-triazol-2-yl)pyridin-3-yl)amino)nicotinamide] was run?
Its pIC50 is 7.00 to 7.30.

`CCn1ncc2c(Nc3nc(N[C@@H]4CCCC[C@@H]4N)c(F)cc3C(N)=O)cc(F)cc21` [Example 2-369, 6-(((1R,2S)-2-aminocyclohexyl)amino)-2-((1-ethyl-6-fluoro-1H-indazol-4-yl)amino)-5-fluoronicotinamide] was tested. Which pIC50 did it give?
Its pIC50 is > 8.00.

`CC[C@@H](Nc1nc(Nc2cc(F)cc3c2cnn3CC)c(C(N)=O)cc1F)[C@H](C)N` [Example 2-371, 6-(((2S,3R)-2-aminopentan-3-yl)amino)-2-((1-ethyl-6-fluoro-1H-indazol-4-yl)amino)-5-fluoronicotinamide] was tested. Which pIC50 did it give?
Its pIC50 is > 8.00.

How did the pIC50 turn out when `CC[C@H](N)[C@@H](C)Nc1nc(Nc2cc(F)cc3c2cnn3CC)c(C(N)=O)cc1F` [Example 2-373, 6-(((2R,3S)-3-aminopentan-2-yl)amino)-2-((1-ethyl-6-fluoro-1H-indazol-4-yl)amino)-5-fluoronicotinamide] was run?
Its pIC50 is > 8.00.

`CC[C@H](N)[C@H](Nc1nc(Nc2cnc(C)c(F)c2)c(C(N)=O)cc1F)C1CC1` [Example 2-382, 6-(((1R,2S)-2-amino-1-cyclopropylbutyl)amino)-5-fluoro-2-((5-fluoro-6-methylpyridin-3-yl)amino)nicotinamide] was tested. Which pIC50 did it give?
Its pIC50 is 7.30 to 8.00.

`CC[C@H](N)[C@H](Nc1nc(Nc2cc(F)c3c(c2)c(N(C)C)nn3C)c(C(N)=O)cc1F)C1CC1` [Example 2-383, 6-(((1R,2S)-2-amino-1-cyclopropylbutyl)amino)-2-((3-(dimethylamino)-7-fluoro-1-methyl-1H-indazol-5-yl)amino)-5-fluoronicotinamide] was tested. Which pIC50 did it give?
Its pIC50 is > 8.00.

How did the pIC50 turn out when `COCCn1ncc2c(Nc3nc(N[C@@H]4CCCC[C@@H]4N)c(F)cc3C(N)=O)cncc21` [Example 2-384, 6-(((1R,2S)-2-aminocyclohexyl)amino)-5-fluoro-2-((1-(2-methoxyethyl)-1H-pyrazolo[3,4-c]pyridin-4-yl)amino)nicotinamide] was run?
Its pIC50 is > 8.00.

`COCCn1ncc2c(Nc3nc(N[C@@H]4CCOC[C@@H]4N)c(F)cc3C(N)=O)cncc21` [Example 2-385, 6-(((3R,4R)-3-aminotetrahydro-2H-pyran-4-yl)amino)-5-fluoro-2-((1-(2-methoxyethyl)-1H-pyrazolo[3,4-c]pyridin-4-yl)amino)nicotinamide] was tested. Which pIC50 did it give?
Its pIC50 is 7.30 to 8.00.

How did the pIC50 turn out when `COCCn1ncc2c(Nc3nc(N[C@@H](CN)CC(C)C)c(F)cc3C(N)=O)cncc21` [Example 2-386, (R)-6-((1-amino-4-methylpentan-2-yl)amino)-5-fluoro-2-((1-(2-methoxyethyl)-1H-pyrazolo[3,4-c]pyridin-4-yl)amino)nicotinamide] was run?
The pIC50 was > 8.00.
